According to US8530465B2, “1, 2-disubstituted amido-anthraquinone derivatives, preparation method and application thereof” (National Defense Medical Center, priority 2010, dated 2013):

Tests used:
Format in all cases: cell-based, human
[1] = tested on: HCT-116; assay: NCI drug screen, HCT-116; settings: HCT-116 (Colon Cancer); 1.00E−5 Molar
Description: (§1) In brief, cellular protein levels were determined after 48 hours of drug exposure by sulforhodamine B colorimetry. Through the use of a time 0 cell control, the cell growth can be determined for each cell line thus allowing calculations of the 50% growth inhibitory concentration (GI50), the total growth inhibition (TGI), and the 50% lethal concentration (LC50). Comparison to plates not exposed to drug permits determination of concentration and times of exposure conferring 50% net growth inhibition (GI50), TGI, and 50% cell kill (LC50).
(§2) The screening system in United State National Cancer Institute (NCI) is consisted of 60 kinds of different human cancer cells, which can be used to assay the growth-inhibiting ability or cell toxicity of a compound against various cancer and tumor at a certain concentration.

[2] = tested on: HOP-62; assay: NCI drug screen, HOP-62; settings: HOP-62 (Non-Small Cell Lung Cancer); 1.00E−5 Molar
Description: as §1, §2

[3] = tested on: SF-295; assay: NCI drug screen, SF-295; settings: SF-295 (CNS Cancer); 1.00E−5 Molar
Description: as §1, §2

[4] = tested on: KM12; assay: NCI drug screen, KM12; settings: KM12 (Colon Cancer); 1.00E−5 Molar
Description: as §1, §2

[5] = tested on: CAKI-1; assay: NCI drug screen, CAKI-1; settings: CAKI-1 (Renal Cancer); 1.00E−5 Molar
Description: as §1, §2

[6] = tested on: HCT-15; assay: NCI drug screen, HCT-15; settings: HCT-15 (Colon Cancer); 1.00E−5 Molar
Description: as §1, §2

[7] = tested on: MCF7; assay: NCI drug screen, MCF7; settings: MCF7 (Breast Cancer); 1.00E−5 Molar
Description: as §1, §2

[8] = tested on: A549/ATCC; assay: NCI drug screen, A549/ATCC; settings: A549/ATCC (Non-Small Cell Lung Cancer); 1.00E−5 Molar
Description: as §1, §2

[9] = tested on: DU145; assay: NCI drug screen, DU145; settings: DU145 (Prostate Cancer); 1.00E−5 Molar
Description: as §1, §2

[10] = tested on: CCRF-CEM; assay: NCI drug screen, CCRF-CEM; settings: CCRF-CEM (Leukemia); 1.00E−5 Molar
Description: as §1, §2

[11] = tested on: NCI-H460; assay: NCI drug screen, NCI-H460; settings: NCI-H460 (Non-Small Cell Lung Cancer); 1.00E−5 Molar
Description: as §1, §2

[12] = tested on: K562; assay: NCI drug screen, K562; settings: K562 (Leukemia); 1.00E−5 Molar
Description: as §1, §2

[13] = tested on: NCI-H522; assay: NCI drug screen, NCI-H522; settings: NCI-H522 (Non-Small Cell Lung Cancer); 1.00E−5 Molar
Description: as §1, §2

[14] = tested on: HCC-2998; assay: NCI drug screen, HCC-2998; settings: HCC-2998 (Colon Cancer); 1.00E−5 Molar
Description: as §1, §2

[15] = tested on: SN12C; assay: NCI drug screen, SN12C; settings: SN12C (Renal Cancer); 1.00E−5 Molar
Description: as §1, §2

[16] = tested on: LOX IMVI; assay: NCI drug screen, LOX IMVI; settings: LOX IMVI (Melanoma); 1.00E−5 Molar
Description: as §1, §2

[17] = tested on: ACHN; assay: NCI drug screen, ACHN; settings: ACHN (Renal Cancer); 1.00E−5 Molar
Description: as §1, §2

[18] = tested on: NCI-H322M; assay: NCI drug screen, NCI-H322M; settings: NCI-H322M (Non-Small Cell Lung Cancer); 1.00E−5 Molar
Description: as §1, §2

[19] = tested on: MDA-MB-231/ATCC; assay: NCI drug screen, MDA-MB-231/ATCC; settings: MDA-MB-231/ATCC (Breast Cancer); 1.00E−5 Molar
Description: as §1, §2

[20] = NCI drug screen, A489; settings: A489 (Renal Cancer); 1.00E−5 Molar
Description: as §1, §2

[21] = tested on: UACC-257; assay: NCI drug screen, UACC-257; settings: UACC-257 (Melanoma); 1.00E−5 Molar
Description: as §1, §2

[22] = tested on: HL-60(TB); assay: NCI drug screen, HL-60(TB); settings: HL-60(TB) (Leukemia); 1.00E−5 Molar
Description: as §1, §2

[23] = tested on: SW-620; assay: NCI drug screen, SW-620; settings: SW-620 (Colon Cancer); 1.00E−5 Molar
Description: as §1, §2

[24] = tested on: SNB-75; assay: NCI drug screen, SNB-75; settings: SNB-75 (CNS Cancer); 1.00E−5 Molar
Description: as §1, §2

[25] = tested on: HS 578-T; assay: NCI drug screen, HS 578-T; settings: HS 578-T (Breast Cancer); 1.00E−5 Molar
Description: as §1, §2

[26] = tested on: HOP-92; assay: NCI drug screen, HOP-92; settings: HOP-92 (Non-Small Cell Lung Cancer); 1.00E−5 Molar
Description: as §1, §2

[27] = tested on: TK-10; assay: NCI drug screen, TK-10; settings: TK-10 (Renal Cancer); 1.00E−5 Molar
Description: as §1, §2

[28] = tested on: NCI-H226; assay: NCI drug screen, NCI-H226; settings: NCI-H226 (Non-Small Cell Lung Cancer); 1.00E−5 Molar
Description: as §1, §2

[29] = tested on: HT29; assay: NCI drug screen, HT29; settings: HT29 (Colon Cancer); 1.00E−5 Molar
Description: as §1, §2

[30] = tested on: M14; assay: NCI drug screen, M14; settings: M14 (Melanoma); 1.00E−5 Molar
Description: as §1, §2

With `Cc1ccc(C(=O)Nc2c(NC(=O)CN3CCN(C)CC3)ccc3c2C(=O)c2ccccc2C3=O)cc1` [CC-43, 1-(4-methylbenzamido)-2-[2-(4-methylpiperazino)acetylamino]-anthraquinone] the “Growth Percent” value [1] was 8.37%, the “Growth Percent” value [2] was 75.21% and the “Growth Percent” value [3] was 89.86%. The “Growth Percent” value [4] was 44.05%, the “Growth Percent” value [5] was 69.76% and the “Growth Percent” value [6] was 27.47%. The “Growth Percent” value [7] was 31.79%, the “Growth Percent” value [8] was 83.89% and the “Growth Percent” value [9] was 82.12%. For the same compound, the “Growth Percent” value [10] was 61.06%, the “Growth Percent” value [11] was 37.47% and the “Growth Percent” value [12] was −4.52%. For the same compound, the “Growth Percent” value [13] was 88.21%, the “Growth Percent” value [14] was 28.97% and the “Growth Percent” value [15] was 63.31%. For the same compound, the “Growth Percent” value [16] was 1.24%, the “Growth Percent” value [17] was 49.87% and the “Growth Percent” value [18] was 72.60%. For the same compound, the “Growth Percent” value [19] was 37.00%, the “Growth Percent” value [20] was 67.36% and the “Growth Percent” value [21] was −50.95%. For the same compound, the “Growth Percent” value [22] was −8.54%, the “Growth Percent” value [23] was 39.17% and the “Growth Percent” value [24] was 82.17%. For the same compound, the “Growth Percent” value [25] was 87.29%, the “Growth Percent” value [26] was 90.68% and the “Growth Percent” value [27] was 101.93%. The “Growth Percent” value [28] was 93.87%, the “Growth Percent” value [29] was 3.69% and the “Growth Percent” value [30] was −60.04%.
